The source of these data is patent publication US10836735B2, “Compositions and methods for treating cancers” (CEDARS-SINAI MEDICAL CENTER, priority 2014, dated 2020).

The subject of series [1] is MIA PaCa-2 pancreatic cancer cells. The series is described as follows: Cell survival with GSK3β inhibitor, HDAC inhibitor and combination. It counts as cell-based. The conditions noted are these: FIGS. 5-7. An excerpt:
FIG. 7 depicts, in accordance with various embodiments of the invention, effect of combination of GSK3β inhibitor tideglusib and HDAC inhibitor Saha on cell survival in pancreatic cancer cells MIA PaCa-2.

The test system is the same in series [2]. The series is described as follows: EMT markers (vimentin, Twist, Snail) in pancreatic cancer cells. The class given is cell-based. Conditions: FIG. 4. An excerpt: FIG. 4 depicts, in accordance with various embodiments of the invention, effect of HDAC, GSK3β inhibitions combined with gemcitabine on EMT in MIA PaCa-2 pancreatic cancer cells.
Inhibition of GSK3β induces up-regulation of EMT as shown by a measure of vimentin which is an accepted measurement for EMT (FIG. 4). This effect of GSK3β was prevented by the HDAC inhibitor Saha (FIG. 4). […] A combination of the two inhibitors with gemcitabine, a chemotherapeutic agent used in pancreatic cancer led to a complete inhibition of the EMT marker vimentin and its transcription factors (FIG. 4).

Another series concerns pdx1-Cre-LSL-Kras mice. Briefly: Mouse model of pancreatic cancer (pdx1-Cre-LSL-Kras) exposed to cigarette smoke: PanIN lesions and fibrosis. The class given is in vivo. The conditions noted are these: Saha 50 mg/Kg 5 times per week, TDZD-8 4 mg/Kg 3 times per week, 6 weeks; compared to control group. The method, then: FIG. 2 depicts, in accordance with various embodiments of the invention, effect of HDAC inhibitor Saha (50 mg/Kg) and GSK3β inhibitor (4 mg/Kg) alone and in combination on reducing PanIN lesion formation.
FIG. 3 depicts, in accordance with various embodiments of the invention, effect of HDAC inhibitor Saha (50 mg/Kg) and GSK3β inhibitor (4 mg/Kg) alone and in combination on fibrosis.
The inventors used a mouse model of pancreatic cancer where an oncogene call mutant K-ras is expressed in the pancreas (pdx1-Cre-LSL-Kras). These mice were exposed to cigarette smoke for 6 weeks in smoking chambers. Groups of mice were injected with GSK3β inhibitor TDZD-8 (4 mg/Kg, 3 times per week) and/or HDAC inhibitor Saha (50 mg/Kg; 5 times per week) for 6 weeks.
The same effect was observed when measuring fibrosis with collagen staining. Fibrosis is a measure of cancer activity.

Another series deals with KPC mice. Briefly: Survival of KPC mice with pancreatic adenocarcinoma. The class given is in vivo. The conditions noted are these: 5 mg/Kg ip 3 times per week from age 8 weeks until death. The method, then: KPC mice, which have Kras and p53 mutations and spontaneously develop pancreatic adenocarcinoma, were ip injected 3 times per week with 5 mg/Kg of ALB185357 from age 8 weeks until death.

Series [3] deals with MIA PaCa-2 pancreatic cancer cell line. The series is described as follows: Western: histone acetylation and GSK-3β phosphorylation/inhibition. It counts as cell-based. Conditions: MIA PaCa-2, 72. The method, then: Cells were cultured in the presence or absence of different doses of ALB-185357 for 72 and protein levels measured by Western.
Series [4] has the same test system. The series is described as follows: Western: EMT and cancer stemness markers. It counts as cell-based. Conditions: MIA PaCa-2, 72. The method, then:
(§1) Cells were cultured in the presence or absence of different doses of ALB-185357 for 72 and protein levels measured by Western (FIG. 22A) and cell invasion measured in Matrigel Invasion Chambers (FIG. 22B).

Series [5] shares this test system. The series is described as follows: Cell invasion in Matrigel Invasion Chambers. The class given is cell-based. The conditions noted are these: MIA PaCa-2, Matrigel Invasion Chambers. The method, then: as §1
For series [6], the system named is normal pancreatic ductal cells. The series is described as follows: Cell survival of normal cells by MTT assay. It counts as cell-based. The conditions noted are these: 72. The method, then:
Cells were cultured in the presence or absence of different doses of ALB-185357 for 72 and cell survival measured by MTT assay.

Series [7] has as its system BT474 breast cancer cells. The series is described as follows: Cell survival by MTT assay. The class given is cell-based. Conditions: BT474, 72. The method, then:
(§2) Cells were cultured in the presence or absence of different doses of ALB-185357 for 72 and cell survival measured by MTT assay (FIGS. 17 and 18) or by counting cell number (FIG. 19).
A general note: Formazan colour is commonly taken as a measure of viable cells.

In series [8] the test system is hepatocellular carcinoma HepG2 cells. The series is described as follows: Cell survival by MTT assay. It counts as cell-based. The conditions noted are these: HepG2, 72. The method, then:
as §2

The test system of series [9] is BxPC-3 pancreatic cancer cell line. Briefly: Cell survival by MTT assay. The class given is cell-based. The method, then: Thus, the effect of ALB-185357 (a dual inhibitor of HDAC and GSK3β) represents an additional synergism to that observed with the combination of individual agents.
BxPC-3 pancreatic cancer cells were cultured in the presence or absence of different doses of ALB-188540 or ALB-185643 for 72 and cell survival measured by MTT assay.

The test system of series [10] is MIA PaCa-2 pancreatic cancer cell line. Briefly: Apoptosis by DNA fragmentation. The class given is cell-based. The conditions noted are these: MIA PaCa-2, 72. The method, then: Dashed lane represents the expected additive effect (Significance between expected additive effect and observed effect is achieved at 2.4 uM).
MIA PaCa-2 cells were cultured in the presence or absence of different doses of ALB-185357 for 72 and apoptosis assessed by measuring DNA fragmentation.
MIA PaCa-2 cells were cultured in the presence or absence of different doses of ALB-185357 or gemcitabine at the low dose of 1 ng/ml for 72 and apoptosis assessed by measuring DNA fragmentation.

For another series, the system named is Raji lymphoma cells. The series is described as follows: Cell survival by counting cell number. The conditions noted are these: 72. The class given is cell-based. The method, then: as §2

In the case of `O=C(CCCCCCC(=O)Nc1ccccc1)NO` [Saha, subcroylanilide hydroxamic acid], the cell survival result in [1] was “dose-dependent effect”. In addition, in [2], the EMT marker vimentin entry is reported as “prevented”; the “transcription factors regulating EMT (Twist and Snail)” value was “inhibited”. For the same molecule, the “formation of pancreatic intraepithelial neoplasia (PanIN) lesions” value in the series with pdx1-Cre-LSL-Kras mice is listed as “significantly decreased formation”.

Turning to `COc1ccc(Nc2nnc(-c3ccc(C(=O)NO)cc3)o2)cc1` [ALB-185357], in the series on KPC mice, the “increase of mice survival” value is listed as “at least 50%” and the “survival of animals with advance pancreatic cancer” value is given as “improves survival”. Moreover, in series [3], the “GSK-3β phosphorylation/inhibition (Western)” value is “dose-dependently up-regulates” and the “histone acetylation (Western)” value is recorded as “dose-dependently up-regulates”. For the same molecule, in series [4], the “expression of EMT markers N-cadherin and twist (Western)” value was “decreases expression”; the “expression of cancer stemness marker Sox2 (Western)” value is on record as “decreases expression”. The cell invasion result in series [5] was “decreases the invasion”. Moreover, the “cell survival of normal cells (MTT)” value in [6] is recorded as “does not affect cell survival”. The “cell survival (MTT)” value in series [7] was “dose-dependently decreases cell survival”. Further, in [8], the “cell survival (MTT)” value was “dose-dependently decreases cell survival”. For the same molecule, in series [9] (BxPC-3, 72 h, MTT), the “concentration at which significance of the effect on cell survival was achieved” value is given as 300 nM. In addition, the “effect on cell survival compared with combination of saha and tideglusib” value in series [9] (BxPC-3, 72 h, same concentration) is given as “greater than the combination”. The “cell survival (MTT)” value in series [9] (BxPC-3, cultured 72 h) is given as “dose-dependently decreased cell survival”. In addition, in series [10], the “apoptosis (DNA fragmentation level)” value is on record as “dose-dependently increases apoptosis” and the “dose at which significance of apoptosis increase was achieved” value is 300 nM. Further, the “cell survival (cell numbers)” value in the series with Raji lymphoma cells is listed as “dose-dependently decreases cell survival”.

In the case of `O=c1sn(-c2cccc3ccccc23)c(=O)n1Cc1ccccc1` [tideglusib, 4-Benzyl-2-(naphthalen-1-yl)-1,2,4-thiadiazolidine-3,5-dione], in series [1], the cell survival result is “dose-dependent effect”.
